Measured values: patent US9670224B2, “Forsythiaside sulfate and derivatives thereof, preparation method and application thereof” (priority 2013, dated 2017)
Where a name gives a salt, the structure may show the parent alone. Read-outs that look alike come from different tables or passages of the source. Marks after values point to notes of the source that are not given here.

Experiments:
Vero cell = assay: Cytotoxicity test on Vero cells (MTT); format: cell-based, African green monkey; conditions: 72 h, Probit regression
Method: Cytotoxicity test: drugs are diluted according to the concentrations indicated in Table 1 for the determination of cytotoxicity.
The aforementioned drugs which are diluted with a maintenance solution (DMEM containing 2% or fetal bovine serum) to different concentrations are dropwise added to the Vero monolayer cell, each well is 0.2ml, there are 6 duplicate wells for each concentration, 6 wells for normal control (normal control group without adding drugs) and 6 wells for blank control (culture medium) are additionally provided, those are placed in an 5% CO2 incubator at 37° C. for culturing, observing CPE with an inverted microscope every day and recording. After 72 h, 20 μL (5 mg·mL^−1) of MTT solution is added in each well, and continues to be incubated for 4 h, the culture broth in each well is sucked and discarded, 100 μL of DMSO is added in each well, and is shaken for 5 min, measuring the OD value at 492 nm to calculate cell survival rate. In SPSS 18.0 statistical software, the cell survival rate is subjected to Probit regression analysis to calculate the maximum non-toxic concentration (TC0) and half toxic concentration (TC50) of the drug on the Vero cell.

Influenza virus = assay: Impact of the drug on virus-induced cytopathy (CPE, MTT), influenza virus; format: cell-based
Parainfluenza virus = assay: Impact of the drug on virus-induced cytopathy (CPE, MTT), parainfluenza virus; format: cell-based; conditions: Vero cells, 100TCID50, drug at about the maximum non-toxic concentration, 72 h
[1] = test system: Coxsackievirus A16 (CoxA16); assay: Impact of the drug on virus-induced cytopathy (CPE, MTT), CoxA16; format: cell-based; conditions: Vero cells, 100TCID50, drug at about the maximum non-toxic concentration, 72 h
[2] = test system: Respiratory syncytial virus (RSV); assay: Impact of the drug on virus-induced cytopathy (CPE, MTT), RSV; format: cell-based; conditions: Vero cells, 100TCID50, drug at about the maximum non-toxic concentration, 72 h
[3] = test system: Herpes simplex virus type-1 (HSV-1); assay: Impact of the drug on virus-induced cytopathy (CPE, MTT), HSV-I; format: cell-based; conditions: Vero cells, 100TCID50, drug at about the maximum non-toxic concentration, 72 h
Adenovirus (AdV) = assay: Impact of the drug on virus-induced cytopathy (CPE, MTT), ADV; format: cell-based; conditions: Vero cells, 100TCID50, drug at about the maximum non-toxic concentration, 72 h
Enterovirus EV71 = assay: Impact of the drug on virus-induced cytopathy (CPE, MTT), EV71; format: cell-based; conditions: Vero cells, 100TCID50, drug at about the maximum non-toxic concentration, 72 h
Coxsackievirus B3 (CVB3) = assay: Impact of the drug on virus-induced cytopathy (CPE, MTT), CVB3; format: cell-based; conditions: Vero cells, 100TCID50, drug at about the maximum non-toxic concentration, 72 h
[4] = Solubility of the isolated solid; conditions: water and ethanol
[5] = test system: influenza virus infected mice; format: in vivo, Kunming mice; conditions: 5 days
[6] = test system: parainfluenza virus infected mice; format: in vivo, Kunming mice
[7] = test system: influenza virus infected mice; format: in vivo, Kunming mice; conditions: lung suspension, 5 days
[8] = test system: parainfluenza virus infected mice; format: in vivo, Kunming mice; remark: listed apart in the source
[9] = test system: influenza virus pneumonia model mice; assay: Observation of lung histomorphology, influenza virus pneumonia mice; format: in vivo, Kunming mice; conditions: 3.25 mg/kg/d to 13 mg/kg/d, fifth day, HE staining
Method: A degreasing cotton is placed in a 200-300 mL beaker, in which a suitable amount of ether (just for making cotton wet) is added, the beaker containing the degreasing cotton is inverted upside down, the mice are extremely excited when anesthetized therein, and are made to lie on their backs when clearly weak, the mice are infected nasally with 15LD50 influenza virus a .d parainfluenza virus at 0.03 ml/nostril, and the virus suspension is replaced with normal saline in the normal control group.
The administration is performed once a day for five consecutive days. The virus control group is drenched with normal saline of the same volume.
Various mice lungs are respectively taken in the fifth day after treatment; general pathological changes of their viscera are observed by naked eyes and are recorded. The lungs are cleaned by rinsing with normal saline and moisture thereon is sucked up by using filter paper; a portion of the lung is fixed with 10% formaldehyde, paraffin-embedded, sliced and HE-strained; observation and photographing are performed under a microscope.

[10] = test system: parainfluenza virus pneumonia model mice; assay: Observation of lung histomorphology, parainfluenza virus pneumonia mice; format: in vivo, Kunming mice; conditions: 3.25 mg/kg/d to 13 mg/kg/d, fifth day, HE staining
[11] = high dosage 13.0 mg/kg/d intragastric
[12] = low dosage 3.25 mg/kg/d intragastric
[13] = parainfluenza virus infected mice, high dosage 13.0 mg/kg/d intragastric, 5 days
[14] = parainfluenza virus infected mice, low dosage 3.25 mg/kg/d intragastric, 5 days

SMILES | half toxic concentration (TC50) (Vero cell) [µg/mL] | the maximum non-toxic concentration (TC0) (Vero cell) [g/L] | antiviral effective rate (ER %), Parainfluenza virus (Parainfluenza virus) | antiviral effective rate (ER %), CoxA16 [1] [%] | antiviral effective rate (ER %), RSV [2] | antiviral effective rate (ER %), HSV-I [3] | antiviral effective rate (ER %), ADV (Adenovirus (AdV)) | antiviral effective rate (ER %), EV71 (Enterovirus EV71) | antiviral effective rate (ER %), CVB3 (Coxsackievirus B3 (CVB3)) [%] | solubility [4] | other results
CCOC(=O)C1=C[C@@H](OC(CC)CC)[C@H](NC(C)=O)[C@@H](N)C1 [oseltamivir phosphate, Oseltamivir phosphate, reference compound] | 832 | 0.28 | 94.52** % | 2.95 | 37.60% | 66.56** % | 10.31% | 51.86% | 1.64 | – | antiviral effective rate (ER %), Influenza virus (Influenza virus; Vero cells, 100TCID50, drug at about the maximum non-toxic concentration, 72 h, MTT): 81.76** %
COc1ccc([C@H]2OCC3C2CO[C@H]3c2ccc(OC)c(OS(=O)(=O)O)c2)cc1OC.N (stereo partly shown) | 555 | 0.105 | – | – | – | – | 20.88* % | 35.12% | 7.10 | soluble in water and ethanol | –
COc1ccc([C@H]2OCC3C2CO[C@H]3c2ccc(OC)c(OS(=O)(=O)O)c2)cc1OC (stereo partly shown) [forsythiaside sodium sulfate] | 685 | 0.128 | – | – | – | – | 20.91* % | 50.21% | 10.55 | soluble in water and ethanol | Lung index (X ± S) [5, 11]: 1.1809 ± .057; Lung index inhibition rate (%) [5, 11]: 20.73%; Lung index (X ± S) [5, 12]: 1.344 ± 0.035; Lung index inhibition rate (%) [5, 12]: 9.69%; Lung index (X ± S) ([6]; mouse, in vivo): 1.303 ± 0.062; Lung index inhibition rate (%) ([6]; mouse, in vivo): 18.46%; Lung index (X ± S) [6, 13]: 1.331 ± 0.073; Lung index inhibition rate (%) [6, 13]: 16.73%; Lung index (X ± S) [6, 14]: 1.311 ± 0.049; Lung index inhibition rate (%) [6, 14]: 17.96%; Hemagglutination titer (InX) ([7]; high dosage 13.0 mg/kg/d): 20.07 ± 0.646; Hemagglutination titer (InX) ([7]; low dosage 3.25 mg/kg/d): 23.93 ± 1.392; Hemagglutination titer (InX) ([8]; lung suspension, parainfluenza virus infected mice, high dosage 13.0 mg/kg/d, 5 days): 19.82 ± 0.981; Hemagglutination titer (InX) ([8]; lung suspension, parainfluenza virus infected mice, low dosage 3.25 mg/kg/d, 5 days): 23.26 ± 0.991; Hemagglutination titer (InX) ([8]; mouse, in vivo): 21.01 ± 0.614; lung histology / pulmonary tissue pathology [9]: significantly improve the pulmonary tissue pathology; lung histology / pulmonary tissue pathology [10]: significantly improve the pulmonary tissue pathology
NC(=O)c1ncn([C@@H]2O[C@H](CO)[C@@H](O)[C@H]2O)n1 [ribavirin, Ribavirin, reference compound] | – | – | 97.56** % | 0.70 | 50.08* % | 62.92** % | 0.43% | 4.25** % | 13.44 | – | antiviral effective rate (ER %), Influenza virus (Influenza virus): 57.49** %; Hemagglutination titer (InX) ([7]; 58.5 mg/kg/d): 21.13 ± 0.986; Hemagglutination titer (InX) ([8]; lung suspension, parainfluenza virus infected mice, 58.5 mg/kg/d, 5 days): 26.73 ± 1.193
